What was measured:
[1] = Neuroprotective activity against glutamate-induced neurotoxicity in Sprague-Dawley rat primary cerebellar granule neurons assessed as cell viability at 10 uM pre-incubated for 24 hrs before glutamate stimulation for 24 hrs by MTT assay; format: functional; conditions: Neuron, read-out: Activity
[2] = biological target: Glycogen synthase kinase-3 beta (Homo sapiens, UniProt P49841)
Glycogen synthase kinase-3 beta, sequence (P49841 whole entry): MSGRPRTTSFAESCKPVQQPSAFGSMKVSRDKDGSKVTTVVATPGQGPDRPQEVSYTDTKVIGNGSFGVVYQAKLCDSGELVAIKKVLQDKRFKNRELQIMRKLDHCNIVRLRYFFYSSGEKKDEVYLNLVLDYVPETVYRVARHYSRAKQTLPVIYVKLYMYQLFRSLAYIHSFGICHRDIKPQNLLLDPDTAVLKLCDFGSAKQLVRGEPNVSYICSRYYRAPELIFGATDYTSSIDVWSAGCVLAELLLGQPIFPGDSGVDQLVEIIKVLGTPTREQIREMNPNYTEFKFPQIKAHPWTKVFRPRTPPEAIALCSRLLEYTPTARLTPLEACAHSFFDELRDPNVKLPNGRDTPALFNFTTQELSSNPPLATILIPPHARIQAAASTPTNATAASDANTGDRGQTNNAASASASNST
Description: Inhibition of recombinant GST-tagged GSK-3beta (unknown origin) expressed in Escherichia coli strain BL21-Codon Plus (DE3) using Ser/Thr 9 peptide substrate by Z'-LYTE kinase assay

| Compound | IC50 [2] [nM] | viability at 10 µM [1] [%] |
| --- | --- | --- |
| Cn1cc(C2=C(c3nnc4ccccn34)C(=O)NC2=O)c2ccc(Br)cc21 | 327 |  |
| Cn1cc(C2=C(c3nnc4ccccn34)C(=O)NC2=O)c2cc(F)ccc21 | 188 | 71.6 |
| Cn1cc(C2=C(c3nnc4ccccn34)C(=O)NC2=O)c2ccc(F)cc21 | 204 | 59.7 |
| O=C1NC(=O)C(c2nnc3ccccn23)=C1c1cn(CCCN2CCOCC2)c2ccccc12 | 200 |  |
| COc1ccc2c(c1)c(C1=C(c3nnc4ccccn34)C(=O)NC1=O)cn2C | 942 |  |
| Cn1cc(C2=C(c3nnc4ccccn34)C(=O)NC2=O)c2ccc(Cl)cc21 | 159 | 55.7 |
| O=C1NC(=O)C(c2nnc3ccccn23)=C1c1c[nH]c2ccccc12 | 477 |  |

Stronger by IC50 [2], values ahead:

| IC50 [2] [nM] | Compound | viability at 10 µM [1] [%] |
| --- | --- | --- |
| 63.5 | Cn1cc(C2=C(c3nnc4ccccn34)C(=O)NC2=O)c2cc(Br)ccc21 | 93.5 |
| 69.7 | CCCCn1cc(C2=C(c3nnc4ccccn34)C(=O)NC2=O)c2ccccc21 | 93.2 |
| 121 | O=C1NC(=O)C(c2nnc3ccccn23)=C1c1cn(CCCO)c2ccccc12 |  |
| 154 | Cn1cc(C2=C(c3nnc4ccccn34)C(=O)NC2=O)c2ccccc21 | 83.6 |
| 105 | Cc1cccc2c(C3=C(c4nnc5ccccn45)C(=O)NC3=O)cn(C)c12 | 94.3 |
| 74.1 | Cn1cc(C2=C(c3nnc4ccccn34)C(=O)NC2=O)c2cc(Cl)ccc21 | 95.1 |
| 13 | CC(C)n1cc(C2=C(c3nnc4ccccn34)C(=O)NC2=O)c2ccccc21 | 94.4 |
| 73.6 | C=CCn1cc(C2=C(c3nnc4ccccn34)C(=O)NC2=O)c2ccccc21 |  |
| 36 | O=C1NC(=O)C(c2nnc3ccccn23)=C1c1cn(CCCn2ccnc2)c2ccccc12 | 60.6 |
